The target in data set [1] is Histone deacetylase 4 (Homo sapiens) (UniProt P56524). The data set is described as follows: Activation of HDAC4 using trifluoroacetyl-lysine containing fluorogenic substrate at 100 uM by spectrofluorometry.
Data set [2] addresses T1, Histone deacetylase 8 (Homo sapiens) (UniProt Q9BY41).
T1 sequence (whole entry): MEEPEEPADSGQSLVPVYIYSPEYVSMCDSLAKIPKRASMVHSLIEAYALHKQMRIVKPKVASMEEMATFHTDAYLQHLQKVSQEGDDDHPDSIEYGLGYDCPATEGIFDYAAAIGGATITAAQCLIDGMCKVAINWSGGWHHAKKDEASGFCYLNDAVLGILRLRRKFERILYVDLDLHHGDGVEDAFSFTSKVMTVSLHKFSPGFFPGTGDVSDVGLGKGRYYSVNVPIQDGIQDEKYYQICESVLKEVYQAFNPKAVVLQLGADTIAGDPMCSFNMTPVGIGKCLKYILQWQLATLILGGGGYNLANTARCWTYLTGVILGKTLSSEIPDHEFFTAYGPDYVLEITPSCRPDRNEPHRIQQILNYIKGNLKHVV
The data set is described as follows: Activation of recombinant human HDAC8 assessed as ratio of the initial rate of reaction in the absence and presence of compound using Fluor-de-Lys as substrate at 10 uM by spectrofluorometry.

The target of data set [3] is Histone deacetylase 4 (Homo sapiens) (UniProt P56524). The data set is described as follows: Activation of HDAC4 using trifluoroacetyl-lysine containing fluorogenic substrate at 10 uM by spectrofluorometry.
Data set [4] is described as follows: Solubility of the compound at 100 uM. Type of data set: physicochemical.
Data set [5] addresses T1, Histone deacetylase 8 (Homo sapiens). The data set is described as follows: Activation of recombinant human HDAC8 assessed as increase in ratio of Kcat to Km using Fluor-de-Lys as substrate by spectrofluorometry relative to control.
Data set [6] deals with T2, Polyamine deacetylase HDAC10 (Homo sapiens) (UniProt Q969S8).
T2 sequence (whole entry): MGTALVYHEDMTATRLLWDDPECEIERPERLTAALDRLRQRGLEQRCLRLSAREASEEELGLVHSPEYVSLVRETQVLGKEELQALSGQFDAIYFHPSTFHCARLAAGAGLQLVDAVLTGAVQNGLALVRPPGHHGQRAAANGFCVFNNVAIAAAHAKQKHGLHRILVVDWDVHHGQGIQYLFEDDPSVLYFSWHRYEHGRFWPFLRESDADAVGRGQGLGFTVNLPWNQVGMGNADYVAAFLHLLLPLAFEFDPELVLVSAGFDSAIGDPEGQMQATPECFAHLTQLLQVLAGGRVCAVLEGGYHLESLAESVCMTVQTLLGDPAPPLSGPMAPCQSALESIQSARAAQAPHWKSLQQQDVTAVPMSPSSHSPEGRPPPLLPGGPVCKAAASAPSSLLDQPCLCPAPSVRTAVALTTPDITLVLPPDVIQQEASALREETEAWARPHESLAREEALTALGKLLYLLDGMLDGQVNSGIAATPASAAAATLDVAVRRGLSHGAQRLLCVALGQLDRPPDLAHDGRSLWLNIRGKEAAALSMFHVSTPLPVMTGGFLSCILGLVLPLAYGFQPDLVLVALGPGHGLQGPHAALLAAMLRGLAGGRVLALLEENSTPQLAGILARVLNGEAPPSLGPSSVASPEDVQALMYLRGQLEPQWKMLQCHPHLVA
The data set can be described thus: Inhibition of HDAC10 using Fluor-de-Lys as substrate at 100 uM by spectrofluorometry.

Data set [7] addresses Histone deacetylase 1 (Homo sapiens) (UniProt Q13547). The data set is described as follows: Inhibition of HDAC1 using Fluor-de-Lys as substrate at 100 uM by spectrofluorometry.
Data set [8] deals with Histone deacetylase 4 (Homo sapiens) (UniProt P56524). The data set can be described thus: Inhibition of HDAC4 using trifluoroacetyl-lysine containing fluorogenic substrate at 100 uM by spectrofluorometry.
The target of data set [9] is T3, Histone deacetylase 11 (Homo sapiens) (UniProt Q96DB2).
T3 sequence (whole entry): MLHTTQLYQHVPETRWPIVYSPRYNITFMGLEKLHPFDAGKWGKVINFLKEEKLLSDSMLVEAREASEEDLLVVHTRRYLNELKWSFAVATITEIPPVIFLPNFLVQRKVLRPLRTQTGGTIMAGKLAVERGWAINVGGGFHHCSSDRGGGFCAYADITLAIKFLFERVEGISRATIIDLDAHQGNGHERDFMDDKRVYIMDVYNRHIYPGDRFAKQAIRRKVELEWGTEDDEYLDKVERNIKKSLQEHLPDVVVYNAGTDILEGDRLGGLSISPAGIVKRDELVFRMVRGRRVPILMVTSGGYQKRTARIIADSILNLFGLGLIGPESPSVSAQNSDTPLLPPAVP
The data set is described as follows: Inhibition of HDAC11 using Fluor-de-Lys as substrate at 100 uM by spectrofluorometry.

Data set [10] addresses Histone deacetylase 3 (Homo sapiens) (UniProt O15379). The data set can be described thus: Inhibition of HDAC3 using Fluor-de-Lys as substrate at 100 uM by spectrofluorometry.
Data set [11] addresses T1, Histone deacetylase 8 (Homo sapiens). The data set is described as follows: Activation of recombinant human HDAC8 using Fluor-de-Lys as substrate by spectrofluorometry.
The target of data set [12] is T4, Protein deacetylase HDAC6 (Homo sapiens) (UniProt Q9UBN7).
T4 sequence (whole entry): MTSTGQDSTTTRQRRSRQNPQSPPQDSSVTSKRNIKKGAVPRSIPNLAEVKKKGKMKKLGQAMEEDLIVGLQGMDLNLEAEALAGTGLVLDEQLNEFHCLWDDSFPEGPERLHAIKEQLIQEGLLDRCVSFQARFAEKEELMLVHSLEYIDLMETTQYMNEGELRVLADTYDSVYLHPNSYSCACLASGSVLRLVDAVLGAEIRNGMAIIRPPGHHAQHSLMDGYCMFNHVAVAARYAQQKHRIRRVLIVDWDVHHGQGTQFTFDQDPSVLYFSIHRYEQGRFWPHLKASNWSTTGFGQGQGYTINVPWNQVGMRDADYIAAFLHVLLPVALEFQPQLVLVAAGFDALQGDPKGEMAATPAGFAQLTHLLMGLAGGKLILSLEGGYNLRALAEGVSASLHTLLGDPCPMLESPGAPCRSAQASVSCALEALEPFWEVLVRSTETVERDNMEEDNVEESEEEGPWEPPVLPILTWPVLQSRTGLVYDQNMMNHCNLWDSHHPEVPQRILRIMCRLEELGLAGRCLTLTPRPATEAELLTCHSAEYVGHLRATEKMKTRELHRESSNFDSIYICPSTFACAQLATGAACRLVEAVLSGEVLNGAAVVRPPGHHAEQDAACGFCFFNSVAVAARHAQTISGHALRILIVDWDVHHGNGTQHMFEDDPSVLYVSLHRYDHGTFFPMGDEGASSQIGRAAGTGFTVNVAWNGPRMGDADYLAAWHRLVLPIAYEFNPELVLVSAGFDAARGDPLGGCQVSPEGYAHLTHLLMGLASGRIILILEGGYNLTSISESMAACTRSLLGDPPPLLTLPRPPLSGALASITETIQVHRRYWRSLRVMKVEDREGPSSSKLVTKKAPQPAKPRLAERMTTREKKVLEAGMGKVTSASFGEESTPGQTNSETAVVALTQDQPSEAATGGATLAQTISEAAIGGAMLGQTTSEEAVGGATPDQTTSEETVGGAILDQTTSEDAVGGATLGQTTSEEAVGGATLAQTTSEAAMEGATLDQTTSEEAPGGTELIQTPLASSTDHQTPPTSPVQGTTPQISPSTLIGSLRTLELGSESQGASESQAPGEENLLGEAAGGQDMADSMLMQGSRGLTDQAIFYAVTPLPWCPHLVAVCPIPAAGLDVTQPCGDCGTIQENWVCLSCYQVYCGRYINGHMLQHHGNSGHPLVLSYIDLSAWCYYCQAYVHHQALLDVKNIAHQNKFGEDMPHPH
The data set is described as follows: Inhibition of HDAC6 using Fluor-de-Lys as substrate at 100 uM by spectrofluorometry.

In data set [13] the target is T1, Histone deacetylase 8 (Homo sapiens). The data set can be described thus: Activation of recombinant human HDAC8 assessed as increase in Kcat using Fluor-de-Lys as substrate by spectrofluorometry relative to control.
Data set [14] has the same target. The data set can be described thus: Activation of recombinant human HDAC8 assessed as decrease in Km using Fluor-de-Lys as substrate by spectrofluorometry.
The target is the same in data set [15]. The data set can be described thus: Maximum activation of recombinant human HDAC8 using Fluor-de-Lys as substrate by spectrofluorometry relative to control.
For data set [16], the target named is Histone deacetylase 2 (Homo sapiens) (UniProt Q92769). The data set can be described thus: Inhibition of HDAC2 using Fluor-de-Lys as substrate at 100 uM by spectrofluorometry.
Histone deacetylase 2 (Homo sapiens), sequence (Q92769 whole entry): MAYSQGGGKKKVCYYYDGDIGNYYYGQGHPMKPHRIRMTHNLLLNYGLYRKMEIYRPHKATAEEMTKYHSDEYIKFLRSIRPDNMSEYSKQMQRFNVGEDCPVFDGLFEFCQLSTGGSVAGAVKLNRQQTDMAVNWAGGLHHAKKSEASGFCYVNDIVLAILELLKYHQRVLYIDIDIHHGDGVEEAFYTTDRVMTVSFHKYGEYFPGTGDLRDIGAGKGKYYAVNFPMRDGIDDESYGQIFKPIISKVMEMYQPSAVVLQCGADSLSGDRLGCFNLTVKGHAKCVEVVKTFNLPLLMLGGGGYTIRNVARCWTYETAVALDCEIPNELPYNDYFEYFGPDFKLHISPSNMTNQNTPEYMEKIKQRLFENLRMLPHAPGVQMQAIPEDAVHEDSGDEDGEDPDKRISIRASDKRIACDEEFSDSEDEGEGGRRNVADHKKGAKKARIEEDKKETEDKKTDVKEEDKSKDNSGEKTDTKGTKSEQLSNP
Data set [17] concerns the target T2, Polyamine deacetylase HDAC10 (Homo sapiens). The data set can be described thus: Activation of HDAC10 using Fluor-de-Lys as substrate at 10 uM by spectrofluorometry.
In data set [18] the target is Histone deacetylase 3 (Homo sapiens) (UniProt O15379). The data set is described as follows: Activation of HDAC3 using Fluor-de-Lys as substrate at 100 uM by spectrofluorometry.
Histone deacetylase 3 (Homo sapiens), sequence (O15379 whole entry): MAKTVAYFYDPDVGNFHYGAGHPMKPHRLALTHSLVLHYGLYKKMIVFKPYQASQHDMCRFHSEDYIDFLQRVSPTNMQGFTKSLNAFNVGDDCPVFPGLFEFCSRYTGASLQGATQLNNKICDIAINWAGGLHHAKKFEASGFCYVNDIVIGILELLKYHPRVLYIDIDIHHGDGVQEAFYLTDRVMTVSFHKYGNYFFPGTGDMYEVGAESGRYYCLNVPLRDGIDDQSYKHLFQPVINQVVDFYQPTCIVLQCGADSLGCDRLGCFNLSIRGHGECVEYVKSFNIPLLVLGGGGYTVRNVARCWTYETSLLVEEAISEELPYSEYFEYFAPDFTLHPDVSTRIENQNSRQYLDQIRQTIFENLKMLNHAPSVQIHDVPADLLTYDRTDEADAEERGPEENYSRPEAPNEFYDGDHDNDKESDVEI
The target of data set [19] is Histone deacetylase 2 (Homo sapiens) (UniProt Q92769). The data set can be described thus: Activation of HDAC2 using Fluor-de-Lys as substrate at 100 uM by spectrofluorometry.
Data set [20] has as its target T2, Polyamine deacetylase HDAC10 (Homo sapiens). The data set can be described thus: Activation of HDAC10 using Fluor-de-Lys as substrate at 100 uM by spectrofluorometry.
The target of data set [21] is Histone deacetylase 3 (Homo sapiens) (UniProt O15379). The data set can be described thus: Activation of HDAC3 using Fluor-de-Lys as substrate at 10 uM by spectrofluorometry.
Data set [22] has as its target T3, Histone deacetylase 11 (Homo sapiens). The data set can be described thus: Activation of HDAC11 using Fluor-de-Lys as substrate at 100 uM by spectrofluorometry.
For data set [23], the target named is Histone deacetylase 2 (Homo sapiens) (UniProt Q92769). The data set is described as follows: Activation of HDAC2 using Fluor-de-Lys as substrate at 10 uM by spectrofluorometry.
Data set [24] deals with T3, Histone deacetylase 11 (Homo sapiens). The data set can be described thus: Activation of HDAC11 using Fluor-de-Lys as substrate at 10 uM by spectrofluorometry.
In data set [25] the target is T4, Protein deacetylase HDAC6 (Homo sapiens). The data set can be described thus: Activation of HDAC6 using Fluor-de-Lys as substrate at 10 uM by spectrofluorometry.
Data set [26] has the same target. The data set is described as follows: Activation of HDAC6 using Fluor-de-Lys as substrate at 100 uM by spectrofluorometry.

Each structure is given as a SMILES string. Activity calls are given as the source filed them. No cut-off for these calls is given here.

Histone deacetylase 1 (Homo sapiens), sequence (Q13547 whole entry): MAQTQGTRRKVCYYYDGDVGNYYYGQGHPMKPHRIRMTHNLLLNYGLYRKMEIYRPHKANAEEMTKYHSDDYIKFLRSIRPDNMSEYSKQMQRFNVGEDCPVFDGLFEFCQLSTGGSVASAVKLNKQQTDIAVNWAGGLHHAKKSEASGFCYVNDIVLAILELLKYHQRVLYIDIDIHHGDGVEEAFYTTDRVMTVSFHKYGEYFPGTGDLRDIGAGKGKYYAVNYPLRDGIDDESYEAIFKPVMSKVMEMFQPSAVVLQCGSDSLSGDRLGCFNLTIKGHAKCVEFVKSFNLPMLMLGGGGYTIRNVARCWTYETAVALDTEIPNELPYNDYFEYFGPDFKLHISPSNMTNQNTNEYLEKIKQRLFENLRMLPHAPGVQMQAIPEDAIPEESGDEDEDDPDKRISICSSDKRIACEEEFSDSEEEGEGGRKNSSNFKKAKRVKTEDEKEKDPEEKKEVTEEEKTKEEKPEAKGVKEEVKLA
Histone deacetylase 4 (Homo sapiens), sequence (P56524 whole entry): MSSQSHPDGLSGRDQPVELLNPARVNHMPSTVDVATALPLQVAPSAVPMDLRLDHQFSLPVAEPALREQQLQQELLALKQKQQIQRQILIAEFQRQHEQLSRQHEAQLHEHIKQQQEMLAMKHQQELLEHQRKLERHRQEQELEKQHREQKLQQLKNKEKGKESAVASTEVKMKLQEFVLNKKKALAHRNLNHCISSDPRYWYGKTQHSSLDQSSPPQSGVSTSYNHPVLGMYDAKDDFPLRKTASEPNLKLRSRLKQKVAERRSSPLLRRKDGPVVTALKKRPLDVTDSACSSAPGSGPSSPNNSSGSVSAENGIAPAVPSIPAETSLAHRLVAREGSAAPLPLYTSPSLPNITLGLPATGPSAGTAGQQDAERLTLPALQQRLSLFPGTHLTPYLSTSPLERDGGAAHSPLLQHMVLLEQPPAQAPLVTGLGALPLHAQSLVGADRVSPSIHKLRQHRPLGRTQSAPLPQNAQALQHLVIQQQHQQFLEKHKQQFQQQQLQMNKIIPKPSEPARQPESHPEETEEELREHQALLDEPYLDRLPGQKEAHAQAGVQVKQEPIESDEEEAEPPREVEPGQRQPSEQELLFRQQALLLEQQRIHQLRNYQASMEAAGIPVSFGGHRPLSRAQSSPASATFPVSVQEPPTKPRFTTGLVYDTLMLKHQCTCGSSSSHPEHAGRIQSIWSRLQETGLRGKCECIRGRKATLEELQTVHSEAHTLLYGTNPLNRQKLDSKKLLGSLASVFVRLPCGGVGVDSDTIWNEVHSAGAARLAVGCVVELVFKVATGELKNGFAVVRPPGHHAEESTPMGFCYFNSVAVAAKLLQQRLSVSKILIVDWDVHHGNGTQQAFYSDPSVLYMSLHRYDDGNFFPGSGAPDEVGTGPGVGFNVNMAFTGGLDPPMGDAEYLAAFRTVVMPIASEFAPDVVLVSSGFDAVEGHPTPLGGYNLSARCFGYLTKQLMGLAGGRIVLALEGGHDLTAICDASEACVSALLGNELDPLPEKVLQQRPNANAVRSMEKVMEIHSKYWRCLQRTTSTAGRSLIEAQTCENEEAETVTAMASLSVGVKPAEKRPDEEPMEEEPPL

Regarding `Cc1cc(=O)oc2cc(NC(=S)NC(=O)c3ccccc3)ccc12`, the result in data set [1] and in data set [3] was inactive. The fold change (FC) in data set [2] is 2. Moreover, the solubility entry in [4] is listed as “Insoluble”.
In the case of `O=C(NC(=S)Nc1ccccc1)c1ccccc1`, the outcome in data set [1] and in data set [3] was inactive. The fold change (FC) in [2] was found to be 12; in [5], 16; in data set [13] it was 5; in [14], 3; in data set [15], 26.8. Further, the inhibition in data set [6] was determined as 15%; in data set [7] it was 8%; in [9], 14%; in [10], 6%; in [12], 30%; in data set [16], 8%. The inhibition entry in [8] was “inactive”. In data set [11], the Ka was found to be 12.4 µM.
For `O=C(NC(=S)NC1CCCCC1)c1ccccc1`, the outcome in [17], in [1], in [18], in data set [19], in data set [20] and in data set [21] was inactive. The outcome in [22], in [3], in [23], in [24], in data set [25] and in [26] was inactive. In data set [2], the fold change (FC) is 5.6. Moreover, the inhibition entry in data set [6], in data set [8], in data set [9], in data set [10], in [12] and in data set [16] was “inactive” throughout. The same compound registered an inhibition in data set [7] of 5%.
For the compound `O=C(NC(=S)NCc1ccccc1)c1ccccc1`, the outcome in data set [17], in data set [1], in data set [18], in data set [19], in data set [20] and in data set [21] was inactive. Further, the outcome in data set [22], in data set [3], in data set [23], in [24], in data set [25] and in data set [26] was inactive. In addition, the fold change (FC) in [2] is 3.3. For the same compound, the inhibition result in [6], in [8], in [9], in data set [10], in data set [12] and in data set [16] was “inactive” each time. In [7], the inhibition came to 5%.

These data come from ChEMBL document CHEMBL1833857, “Histone deacetylase activators: N-acetylthioureas serve as highly potent and isozyme selective activators for human histone deacetylase-8 on a fluorescent substrate” (Bioorg Med Chem Lett, 2011).
